Data taken from US8901089B2, “Composition comprising an amorphous non-crystalline glass form of roxithromycin” (North-West University, priority 2009, dated 2014).
In brackets after ≈: the same amount, converted by molar mass.

How the values were obtained:
Assay type in all cases: physicochemical
[1] = Exposure of Form-II to 50 degrees Celsius at zero and 75% relative humidity (microscopy); settings: 18 days
From the text: Form-II was further subjected to a temperature of 50 degrees Celsius at respectively zero (FIG. 3) and 75% relative humidity (FIG. 4) for 18 days.

[2] = Vapour sorption experiments (moisture isotherm)
From the text: The sharp increase is attributed to the condensation of water on the sample holder.

[3] = Chemical stability by HPLC analysis; settings: after solubility test
Description: (§1) The concentrations of the five filtrates of Form-II and roxithromycin raw material respectively are determined by HPLC (high performance liquid chromatography) assay. The HPLC assay is performed utilising a mobile phase of 30 g/L ammonium dihydrogen phosphate buffer at pH 5.3. The pH is adjusted with sodium hydroxide solution and 310 ml of the buffer solution is mixed with 690 ml acetonitrile. A Luna C18 150 mm×4.6 mm column is used with a flow rate of 1.0 ml/min and a wavelength of 205 nm. Validation of this method provides a linear regression r^2 of 0.9998.

[4] = Solubility of Form-II and roxithromycin raw material in three media, HPLC assay; settings: for solubility at 24 h: 37 °C, thermodynamic from solid
Description: In further analysis of the novel Form-II, five test tubes with 100 mg of Form-II and 10 ml of one of the following solubility mediums respectively, namely, acetate buffer (pH 4.5), phosphate buffer (pH 6.8) and distilled water were filled.
The test tubes are then fixed to a rotating axis (54 rpm) and submerged in a water bath at 37 degrees Celsius±2 degrees Celsius for twenty-four hours. The contents of the test tubes are filtered through a 0.45 μm filter and subsequently the respective filtrates are diluted.
as §1

Row | Compound | crystallisation ([1]; 75% relative humidity) | crystallisation ([1]; zero relative humidity) | increase in weight (moisture isotherm) ([2]; from 70 to 90% RH, attributed to condensation of water on the sample holder) | weight loss upon decreasing the humidity ([2]; from 90 to 0% RH, returned to starting weight) [%] | increase in weight (moisture isotherm) ([2]; relative humidity up to 60% RH) | solid state after high levels of moisture ([2]; vapour sorption up to 90% RH) | chemical stability (HPLC analysis) [3] | solubility ([4]; acetate buffer (pH 4.5), 37 degrees Celsius, twenty-four hours) [µg/mL] | solubility ([4]; distilled water, 37 degrees Celsius, twenty-four hours) [µg/mL] | more soluble than monohydrated roxithromycin (theoretical solubility of 1.8 μg/ml) ([4]; in water) [%] | solubility ([4]; phosphate buffer (pH 6.8), 37 degrees Celsius, twenty-four hours) [µg/mL] | solubility at 24 h ([4]; pH 4.5, aqueous buffer) [µg/mL] | solubility at 24 h ([4]; pH 6.8, aqueous buffer) [µg/mL] | solubility at 24 h ([4]; water) [µg/mL] | solubility ([4]; pH 4.5, aqueous buffer) [µg/mL] | solubility ([4]; pH 6.8, aqueous buffer) [µg/mL] | solubility ([4]; water) [µg/mL]
1 | CC[C@H]1OC(=O)[C@H](C)[C@@H](O[C@H]2C[C@@](C)(OC)[C@@H](O)[C@H](C)O2)[C@H](C)[C@@H](O[C@@H]2O[C@H](C)C[C@H](N(C)C)[C@H]2O)[C@](C)(O)C[C@@H](C)C(=NOCOCCOC)[C@H](C)[C@@H](O)[C@]1(C)O [Form-II, 3R,4S,5S,6R,7R,9R,11S,12R,13S,14R-6-[(2S,3R,4S,6R)-4-dimethylamino-3-hydroxy-6-methyloxan-2-yl]oxy-14-ethyl-7,12,13-trihydroxy-4-[(2R,4R,5S,6S)-5-hydroxy-4-methoxy-4,6-dimethyloxan-2-yl]oxy-10-(2-methoxyethoxymethoxyimino)-3,5,7,9,11,13-hexamethyl-1-oxacyclotetradecan-2-one] | no crystallisation | no crystallisation | up to 4% | 4 | approximately 1.5% | remained amorphous | chemically stable | 762.71 ± 2.6 (≈ 911 µM) | 32.86 ± 3.5 (≈ 39.3 µM) | 1798 | 134.4 ± 4.9 (≈ 161 µM) | – | – | – | – | – | –
2 | CC[C@H]1OC(=O)[C@H](C)[C@@H](O[C@H]2C[C@@](C)(OC)[C@@H](O)[C@H](C)O2)[C@H](C)[C@@H](O[C@@H]2O[C@H](C)C[C@H](N(C)C)[C@H]2O)[C@](C)(O)C[C@@H](C)/C(=N\OCOCCOC)[C@H](C)[C@@H](O)[C@]1(C)O [roxithromycin raw material, roxithromycin] | – | – | – | – | – | – | – | – | – | – | – | 370 ± 8.3 (≈ 442 µM) | 74.8 ± 5.1 (≈ 89.4 µM) | 1.7 ± 0.6 (≈ 2.03 µM) | 370 (≈ 442 µM) | 74.8 (≈ 89.4 µM) | 1.8 (≈ 2.15 µM)
